Columns and labels:
detrusor muscle [1] = assay: Test Example 1: relaxation of guinea pig bladder strips contracted with 50 mM KCl; assay type: cell-based, guinea pig (male albino Hartley); settings: Cavia porcellus; contraction induced by 50 mM KCl; concentration decreasing detrusor contraction by 50%
Source text: (§1) The activity of Compound (I) as a smooth muscle relaxant which is useful as a therapeutic agent for urinary incontinence can be observed, for example, using the following tests. In the following Test Examples 1 and 2, "IC50 " means the concentration of a test compound which induces the decrease in the contraction of detrusor muscle by 50%.
(§2) Male albino Hartley guinea pigs (350-550 g) were used as test animals. Each animal was exsanguinated to death under pentobarbital sodium anesthesia. The lower abdominal cavity was opened and its bladder was positioned. The connective tissue and the fat tissue around the bladder were removed, and the bladder was cleaned. After two pelvic nerves on the surface of the abdominal side of the bladder were dissected, the bladder was taken out on the entrance of ureter. The bladder was washed with a Krebs-Henseleit buffer [composition (mM): NaCl 118, KCl 4.7, MgSO4 1.2, KH2 PO4 1.2, CaCl2 2.5, NaHCO3 25, and D-glucose 11.1], and then put on a gauze patch soaked in the buffer in a Petri dish. The dome and the trigone of the bladder were dissected and discarded. The back of the bladder was cut vertically in the middle with scissors, and the bladder was put flat on the gauze patch. The dome tip and the side of the trigone of the bladder were dissected and discarded, and the mucosa of the bladder was removed. The back of the bladder was cut vertically to get 6 strips which are ca. 2.0 mm wide and ca. 10 mm long.
(§3) One end of each strip was fixed on a plastic supporter rod, and the other end was fixed on a clip connected to a suture thread. The supporter was fixed in 20 ml of an organ bath and the suture thread connected to the clip was fixed on a force-displacement transducer (NIHON KODEN TB-611T). The tissue was suspended in a Krebs-Henseleit buffer, and the bath solution was warmed to 37° C. and bubbled with a gas mixture of 5% CO2 and 95% O2. The pH of the solution was adjusted to about 7.4. The transducer was connected to a polygraph (NIHON KODEN AP-621G), and the change of tension was recorded on a recorder (YOKOGAWA type 3066). The polygraph was graduated by 0.5 g/cm.
After the tissue was incubated in the buffer for 15 minutes without preloading, tension was added thereto for about one hour. The preloading tension added was 1.5 g and it was relaxed to about 1 g. The tissue was washed at intervals of 15 minutes and the tension was adjusted to 1.5 g just before washing. The tension of the tissue was adjusted to be a steady state at 1 g. After this equilibrium time, 50 mM KCl (the whole content in the bath) was added, and the tissue was washed 10 minutes later. KCl was added to the tissue at intervals of 30 minutes, followed by washing 10 minutes later, and KCl was applied repeatedly until the developed tension induced by KCl becomes constant. When the tissue was confirmed to contract constantly by the application of KCl and relax to the steady state after washing, 50 mM KCl was applied again. After the tissue reached the steady state and the base line was obtained, a test compound was applied by the cumulative method (half-logarithmic incremence). The contact time at each concentration was 30 minutes. The activity of the compound was expressed as the maximum relaxation rate (%) of the tension induced by the agonist.

detrusor muscle [2] = assay: Test Example 2: relaxation of guinea pig bladder strips, rhythmical contraction induced by 15 mM KCl; assay type: cell-based, guinea pig (male albino Hartley); settings: Cavia porcellus, concentration decreasing detrusor contraction by 50%
Source text: as §1, §2, §3
The effect of a smooth muscle relaxant varies with the concentration of KCl based on the difference of an action mechanism. In the following Test Example, KCl was used at a concentration different from that in Test Example 1.
A sample of the excised bladder was prepared in the same manner as in Test Example 1, and the tension of the preparation was measured. After the tension of the tissue was adjusted to be a steady state at 1 g, 15 mM KCl was applied. After the rhythmical contraction was confirmed to appear by KCl, the tissue was washed. Then, 15 mM KCl was applied again. After the rhythmical contraction took place constantly and the tissue reached the steady state, a test compound was applied by the cumulative method (half-logarithmic incremence). The contact time at each concentration was 30 minutes. The activity of the compound was expressed as the maximum relaxation rate (%) of the tension induced by the agonist.

bladder = assay: Test Example 4: micturition contraction interval in rats under partial restraint, oral; assay type: in vivo, rat (male SD strain); settings: Rattus norvegicus, 1.0 mg/kg oral, pre-administration = 100, second part of Table 4
Source text: As a control compound, cromakalim was used.

Row | Structure (SMILES) | IC50 (detrusor muscle [1]) [µM] | IC50 (detrusor muscle [2]) [µM] | response vs control in vivo at 1 mg/kg (bladder; 1 hr after administration) [%] | response vs control in vivo at 1 mg/kg (bladder; 2 hr after administration) [%] | response vs control in vivo at 1 mg/kg (bladder; 3 hr after administration) [%] | response vs control in vivo at 1 mg/kg (bladder; 4 hr after administration) [%] | response vs control in vivo at 1 mg/kg (bladder; 5 hr after administration) [%]
1 | CC(O)(C(=O)Nc1ccc2c(c1)OCc1ccccc1C2=O)C(F)(F)F (stereo not shown) [Compound 2, 3-(3,3,3-Trifluoro-2-hydroxy-2-methylpropanoylamino)-6,11-dihydrodibenz[b,e]oxepin-11-one] | 3.6 | 3.4 | 121 ± 6.2 | 135 ± 12.3 | 144 ± 16.3 | 141 ± 15.6 | 145 ± 16
2 | CC(O)(C(=O)Nc1ccc2c(c1)C(=O)c1ccccc1-2)C(F)(F)F (stereo not shown) [Compound 5, 2-(3,3,3-Trifluoro-2-hydroxy-2-methylpropanoylamino)fluoren-9-one] | 8 | 2.1 | 112 ± 7 | 136 ± 16.5 | 137 ± 14.5 | 132 ± 9.5 | 131 ± 17.7
3 | CC(O)(C(=O)Nc1ccc2c(c1)OCc1ccsc1C2=O)C(F)(F)F (stereo not shown) [Compound 8, 7-(3,3,3-Trifluoro-2-hydroxy-2-methylpropanoylamino)-4,10-dihydrothieno[3,2-c][1]benzoxepin-10-one] | 5.2 | 0.5 | 130 ± 9.3 | 142 ± 12.6 | 144 ± 8.8 | 162 ± 14.6 | 189 ± 19.6
4 | CC(O)(C(=O)Nc1cccc2c1C(=O)c1ccoc1CO2)C(F)(F)F (stereo not shown) [Compound 9, 5-(3,3,3-Trifluoro-2-hydroxy-2-methylpropanoylamino)-4,10-dihydrofuro[2,3-c][1]benzoxepin-4-one] | 4.3 | 4.6 | 123 ± 6.8 | 131 ± 9.3 | 133 ± 9.1 | 145 ± 10 | 155 ± 12.2
5 | CC(O)(C(=O)Nc1ccc2c(c1)OCc1occc1C2=O)C(F)(F)F (stereo not shown) [Compound 10, 7-(3,3,3-Trifluoro-2-hydroxy-2-methylpropanoylamino)-4,10-dihydrofuro[2,3-c][1]benzoxepin-4-one] | 10 | 1.9 | 132 ± 11.2 | 142 ± 17.5 | 158 ± 22.3 | 174 ± 29.9 | 183 ± 42.7
6 | CC(O)(C(=O)Nc1cccc2c1C(=O)c1occc1CO2)C(F)(F)F (stereo not shown) [Compound 15, 9-(3,3,3-Trifluoro-2-hydroxy-2-methylpropanoylamino)-4,10-dihydrofuro[3,2-c][1]benzoxepin-10-one] | 7.1 | 9.4 | 130 ± 9.5 | 128 ± 5.3 | 107 ± 16.5 | 121 ± 11.4 | 135 ± 12.6
7 | CC(O)(C(=O)Nc1ccc2c(c1)C(=O)c1sccc1CO2)C(F)(F)F (stereo not shown) [Compound 16, 8-(3,3,3-Trifluoro-2-hydroxy-2-methylpropanoylamino)-4,10-dihydrothieno[3,2-c][1]benzoxepin-10-one] | > 10 | 1.4 | 118 ± 7.9 | 132 ± 14.2 | 119 ± 9.8 | 127 ± 7.1 | 137 ± 12.6
8 | CC(O)(C(=O)Nc1ccc2c(c1)SCc1ccsc1C2=O)C(F)(F)F (stereo not shown) [Compound 45, 7-(3,3,3-Trifluoro-2-hydroxy-2-methylpropanoylamino)-4,10-dihydrothieno[3,2-c][1]benzothiepin-10-one] | > 10 | 2.5 | – | – | – | – | –
9 | CC(O)(C(=O)Nc1ccc2c(c1)[S+]([O-])Cc1ccccc1C2=O)C(F)(F)F (stereo not shown) [Compound 49, 5-Oxo-3-(3,3,3-trifluoro-2-hydroxy-2-methylpropanoylamino)-6,11-dihydrodibenzo[b,e]thiepin-11-one] | 7.8 | 4.1 | – | – | – | – | –
10 | CC(O)(C(=O)Nc1ccc2c(c1)CCc1ccccc1C2=O)C(F)(F)F (stereo not shown) [Compound 54, 2-(3,3,3-Trifluoro-2-hydroxy-2-methylpropanoylamino)-10,11-dihydro-5H-dibenzo[a,d]cyclohepten-5-one] | 3.8 | > 10 | – | – | – | – | –
11 | CC(O)(C(=O)Nc1ccc2c(c1)CCc1ncccc1C2=O)C(F)(F)F (stereo not shown) [Compound 59, 8-(3,3,3-Trifluoro-2-hydroxy-2-methylpropanoylamino)-10,11-dihydro-5H-benzo[4,5]cyclohepta[1,2-b]pyridin-5-one] | > 10 | 5 | – | – | – | – | –
12 | CC(O)(C(=O)Nc1cccc2ccc3ccccc3c(=O)c12)C(F)(F)F (stereo not shown) [Compound 60, 4-(3,3,3-Trifluoro-2-hydroxy-2-methylpropanoylamino)-5H-dibenzo[a,d]cyclohepten-5-one] | > 10 | 4.1 | – | – | – | – | –
13 | CC(O)(C(=O)Nc1ccc2ccc3ccccc3c(=O)c2c1)C(F)(F)F (stereo not shown) [Compound 61, 3-(3,3,3-Trifluoro-2-hydroxy-2-methylpropanoylamino)-5H-dibenzo[a,d]cyclohepten-5-one] | 3.2 | 2.3 | – | – | – | – | –
14 | CC(O)(C(=O)Nc1ccc2c(=O)c3ccccc3ccc2c1)C(F)(F)F (stereo not shown) [Compound 62, 2-(3,3,3-Trifluoro-2-hydroxy-2-methylpropanoylamino)-5H-dibenzo[a,d]cyclohepten-5-one] | 9.3 | > 10 | – | – | – | – | –
15 | CC(O)(C(=O)Nc1cccc2ccc3ccsc3c(=O)c12)C(F)(F)F (stereo not shown) [Compound 63, 9-(3,3,3-Trifluoro-2-hydroxy-2-methylpropanoylamino)-10H-benzo[5,6]cyclohepta[1,2-b]thiophen-10-one] | 3.3 | > 10 | – | – | – | – | –
16 | CC(O)(C(=O)Nc1ccc2c(=O)c3sccc3ccc2c1)C(F)(F)F (stereo not shown) [Compound 65, 7-(3,3,3-Trifluoro-2-hydroxy-2-methylpropanoylamino)-10H-benzo[5,6]cyclohepta[1,2-b]thiophen-10-one] | 4.6 | 2.3 | – | – | – | – | –
17 | CC(O)(C(=O)Nc1cccc2ccc3sccc3c(=O)c12)C(F)(F)F (stereo not shown) [Compound 66, 5-(3,3,3-Trifluoro-2-hydroxy-2-methylpropanoylamino)-4H-benzo[4,5]cyclohepta[1,2-b]thiophen-4-one] | 1.4 | 2.1 | – | – | – | – | –
18 | CC(O)(C(=O)Nc1cccc2ccc3ccoc3c(=O)c12)C(F)(F)F (stereo not shown) [Compound 67, 9-(3,3,3-Trifluoro-2-hydroxy-2-methylpropanoylamino)-10H-benzo[5,6]cyclohepta[1,2-b]furan-10-one] | 6.9 | 3.8 | – | – | – | – | –
19 | CC(O)(C(=O)Nc1ccc2c(=O)c3occc3ccc2c1)C(F)(F)F (stereo not shown) [Compound 68, 7-(3,3,3-Trifluoro-2-hydroxy-2-methylpropanoylamino)-10H-benzo[5,6]cyclohepta[1,2-b]furan-10-one] | > 10 | 3.5 | – | – | – | – | –

From patent US5726325A, “Tricyclic compounds” (Kyowa Hakko Kogyo Co., Ltd., priority 1995, dated 1998)
